Reference: patent publication US20130011845A1, “MICRORNA REGULATING THE INSULIN SIGNALING PATHWAY, AND METHOD FOR SCREENING MATERIAL FOR CONTROLLING THE ACTION OF A TARGET THEREOF” (SNU R & DB Foundation, priority 2009, published 2013)

Test system: 3′UTR of fog2 mRNA
Assay: luciferase assay with wild-type or mutated miR-200 target sites of FOG2 3′UTR
Format: cell-based, human
Settings: Hela cell lines, compared to siGFP
Description: The inventors examined whether human miR-200 family miRNAs regulate the expression by directly binding to 3′ UTR of fog2 mRNA in the same manner as drosophila miR-8 miRNA regulates the expression by directly binding to 3′ UTR of ush mRNA. Specifically, in order to obtain cDNA of FOG2, represented by SEQ ID: 110, from K562 cell lines, total RNA was extracted using RNeasy mini kit (QIAGEN, US). Then, 1 μg of total RNA and 1 μl of Oligo-dT (Invitrogen, US) were charged with up to 50 μl of distilled water, and placed into SuperScript First-Strand Synthesis System (Invitrogen, US), followed by RT-PCR reaction. […] By using pCK-FOG2, primers noted in Table 8, and QuickChange Site-Directed Mutagenesis kit, one (FOG2 m1, FOG2 m2, FOG2 m3), two ((FOG2 m12, FOG2 m23) or three (FOG2 m123) mutants were introduced into three miR-200 target sites of FOG2 3′UTR. Hela cell lines were transfected with wild-type FOG2(FOG2 wt), FOG2 ml, FOG2 m2, FOG2 m3, FOG2 m12, FOG2 m23 or FOG2 m123, together with renilla luciferase expression vector and synthesized siGFP, miR-141/200a or miR-200b/c/429. Then, the activity of luciferase was measured in the same manner as described in Example 8-2. The synthesized miRNA include a mixture of the same levels of miRNAs including respective seed sequences. […]

Substance	expression of luciferase, FOG2 3′UTR
5′-UAACACUGUCUGGUAACGAUGU-3′ (listed as RNA, chemistry not given here) [miR-200a]	suppressed the expression of luciferase, albeit less effectively than the other members did
5′-UAACACUGUCUGGUAAAGAUGG-3′ (listed as RNA, chemistry not given here) [miR-141]	suppressed the expression of luciferase, albeit less effectively than the other members did
